Columns and labels:
Format in all cases: in vivo
Plasmopara viticola [1] = experiment: Eradicant grape downy mildew control, detached Emperor leaves (Example 6, Table I); conditions: 48 h, sprayed 2 days after inoculation, read-out: Eradicative Grape Downy Mildew Control, %
[2] = tested on: Pseudoperonospora cubensis; experiment: Foliar spray control of cucumber downy mildew (Example 15, Table X)
Bremia lactucae = experiment: Control of lettuce downy mildew (Example 13, Table VIII)
Plasmopara viticola [3] = experiment: Preventive grape downy mildew control, detached Emperor leaves (Example 5, Table I); conditions: 100 ppm, sprayed before inoculation
Phytophthora cryptogea [4] = experiment: Snapdragon crown and root rot control, soil drench (Example 16, Table XI); conditions: in vivo
Phytophthora cryptogea [5] = experiment: Snapdragon crown and root rot control, foliar spray (Example 16, Table XI); conditions: in vivo
Phytophthora cryptogea [6] = experiment: Safflower crown and root rot control by foliar spray (Example 17, Table XII)
Plasmopara viticola [7] = experiment: Preventive grape downy mildew control, detached Cabernet Sauvignon leaves (Example 7, Table II)
Plasmopara viticola [8] = experiment: Eradicant downy mildew control on Emperor and Carignane grape leaves (Example 9, Table IV)
[9] = Carignane leaves, treated 3 days after inoculation
[10] = Emperor leaves, treated 1 day after inoculation
[11] = Emperor leaves, treated 2 days after inoculation

Row | Compound | pest or weed control at 100 ppm (Plasmopara viticola [1]) [%] | pest or weed control at 100 ppm (Plasmopara viticola [3]) [%] | further results
1 | CCc1cccc(CC)c1N(C(=O)CCl)C1CC(C)OC1=O (stereo not shown) [Compound 12] | 87 | – | –
2 | Manganous ethylene bisdithiocarbamate [Maneb, reference compound] | – | – | % Control ([2]; 16 ppm): 80%; % Control ([2]; 40 ppm): 90%; % Control ([2]; 100 ppm): 98.3%; % Dead Seedlings (Bremia lactucae): 14.5%; % Control (Bremia lactucae; in vivo): 40.6%
3 | O=C1OCCC1N(C(=O)CCl)c1cc(Cl)cc(Cl)c1 (stereo not shown) [Compound 11] | 54 | 45 | –
4 | {[1,2-ethanediylbis(carbamodithioato)](2-)} manganese mixture with {[1,2-ethanediylbis(carbamodithioato)](2-)}-0 zinc [Mancozeb, reference compound] | – | – | % Control (Phytophthora cryptogea [4]): 0%; % Control (Phytophthora cryptogea [5]): 0%
5 | CCc1cccc(C)c1N(C(=O)CCl)C1CCOC1=O (stereo not shown) [Compound 13] | 87 | 0 | –
6 | O=C1OCCC1N(C(=O)CCl)c1c(Cl)cccc1Cl (stereo not shown) [Compound 9] | 95 | 0 | pest or weed control at 40 ppm (Plasmopara viticola [1]): 67%
7 | Cc1cccc(C(C)(C)C)c1N(C(=O)CCl)C1CCOC1=O (stereo not shown) [Compound 25] | 0 | – | –
8 | C=CCN1CCC(N(C(=O)CCl)c2c(C)cccc2C)C1=O (stereo not shown) [Compound 20] | 0 | – | –
9 | CCc1cccc(C)c1N(C(=O)CCl)C1CC(C)OC1=O (stereo not shown) [Compound 14] | 29 | – | –
10 | Cc1cccc(C)c1N(C(=O)CCl)C1CCN(C)C1=O (stereo not shown) [Compound 4] | 3 | – | –
11 | O=C1OCCC1N(C(=O)CCl)c1ccccc1 (stereo not shown) [Compound 5] | 0 | – | –
12 | Cc1cccc(C)c1N(C(=O)c1ccc(Cl)c(Cl)c1)C1CCOC1=O (stereo not shown) [Compound 2] | 29 | – | –
13 | COc1cccc(OC)c1N(C(=O)CCl)C1CCOC1=O (stereo not shown) [Compound 16] | 67 | – | –
14 | COC(=O)C(C)N(C(=O)CCl)c1c(C)cccc1C (stereo not shown) [Compound 27, reference compound] | 96 | 78 | –
15 | CCC(=O)N(c1ccc(Cl)c(Cl)c1)C1CCOC1=O (stereo not shown) [Compound 1] | – | 0 | pest or weed control at 40 ppm (Plasmopara viticola [1]): 5%
16 | Cc1cccc(C)c1N(C(=O)CCl)C1CCNC1=O (stereo not shown) [Compound 21] | 0 | – | –
17 | Cc1cccc(C)c1N(C(=O)CCl)C1CCN(C(C)C)C1=O (stereo not shown) [Compound 18] | 37 | 15 | –

Row | Compound | pest or weed control at 100 ppm (Plasmopara viticola [1]) [%] | pest or weed control at 100 ppm (Plasmopara viticola [3]) [%] | further results
18 | Cc1cc(N2CCC(N(C(=O)CCl)c3c(C)cccc3C)C2=O)ccc1Cl (stereo not shown) [Compound 22] | 32 | – | –
19 | Cc1ccc(N(C(=O)CCl)C2CCOC2=O)cc1C (stereo not shown) [Compound 26] | 87 | 12 | –
20 | COC(=O)C(C)N(C(=O)CCl)c1c(C)cccc1C (stereo not shown) [drawing 3, reference compound] | – | – | % Control (Phytophthora cryptogea [6]; 16 ppm): 0%; % Control (Phytophthora cryptogea [6]; 40 ppm): 0%; % Control (Phytophthora cryptogea [6]; 100 ppm): 10%
21 | CCc1ccccc1N(C(=O)CCl)C1CCOC1=O (stereo not shown) [Compound 8] | 0 | 0 | –
22 | O=C1OCCC1N(C(=O)CCl)c1ccc(Cl)c(Cl)c1 (stereo not shown) [Compound 10] | 39 | 89 | –
23 | O=C1c2ccccc2C(=O)N1SC(Cl)(Cl)Cl [Folpet, N-(trichloromethylthio)phthalimide, reference compound] | – | – | Percent Control (Plasmopara viticola [7]; 6.4 ppm): 80.1%; Percent Control (Plasmopara viticola [7]; 16 ppm): 98.8%; Percent Control (Plasmopara viticola [7]; 40 ppm): 97.7%
24 | COc1ccccc1N(C(=O)CCl)C1CCOC1=O (stereo not shown) [Compound 3] | 12 | 0 | –
25 | O=S(=O)([O-])[O-].[Cu+2] [Cupric sulfate] | – | – | Eradication ED50 (ppm of applied spray for 50% control) (Plasmopara viticola [8]; [9]): 380 ppm; Eradication ED90 (ppm of applied spray for 90% control) (Plasmopara viticola [8]; [9]): 610 ppm; Eradication ED50 (ppm of applied spray for 50% control) (Plasmopara viticola [8]; [10]): 118 ppm; Eradication ED90 (ppm of applied spray for 90% control) (Plasmopara viticola [8]; [10]): 289 ppm; Eradication ED50 (ppm of applied spray for 50% control) (Plasmopara viticola [8]; [11]): 204 ppm; Eradication ED90 (ppm of applied spray for 90% control) (Plasmopara viticola [8]; [11]): 445 ppm
26 | Cc1cccc(C)c1N(C(=O)CCl)C1CC(C)OC1=O (stereo not shown) [B, 3-(N-chloroacetyl-N-2,6-dimethylphenylamino)-5-methyl-gamma-butyrolactone] | – | 80 | pest or weed control at 40 ppm (Plasmopara viticola [1]): 95%
27 | CC(C)c1ccccc1N(C(=O)CCl)C1CCOC1=O (stereo not shown) [Compound 7] | – | 3 | pest or weed control at 16 ppm (Plasmopara viticola [1]; 16 ppm): 17%
28 | Cc1cccc(C)c1N(C(=O)c1ccc(Cl)cc1)C1CCN(C)C1=O (stereo not shown) [Compound 23] | 0 | – | –
29 | Cc1cccc(C)c1N(C(=O)CCCl)C1CCOC1=O (stereo not shown) [Compound 17] | 50 | – | –
30 | Cc1cc(C)c(N(C(=O)CCl)C2CCOC2=O)c(C)c1 (stereo not shown) [Compound 24] | 0 | – | –
31 | Cc1cccc(C)c1N(C(=O)C(Cl)=C(Cl)Cl)C1CCOC1=O (stereo not shown) [Compound 19] | 15 | – | –
32 | CCc1cccc(CC)c1N(C(=O)CCl)C1CCOC1=O (stereo not shown) [Compound 6] | 39 | 0 | –
33 | Cc1cccc(C)c1N(C(=O)CBr)C1CCOC1=O (stereo not shown) [Compound 15] | 54 | – | –
